Data as given in patent publication US10098352B2, “Honeybee repellents and uses thereof” (Inscent, Inc., priority 2011, dated 2018).

Key:
[1] = cited from earlier work
[2] = tested on: Apis mellifera Carniolan foraging worker honeybees; experiment: Choice test in free-flight box apparatus; format: in vivo; conditions: for Repellence Score: percent food-weight change vs corresponding dishes in preceding test
Method: To determine whether living honeybees will choice to move towards a source of a candidate compound, these compounds were assayed using a choice test in a free-flight box apparatus.
All tests were done in a free-flight box apparatus. The apparatus comprises a 244 cm long×46 cm deep×30 cm high clear plastic box including two equally-sized independent testing chambers, each with 10 cm diameter air inlets that admit filtered room air, separated by a smaller central chamber with a screened air outlet to each testing chamber. Air can be pulled through the sealed box via a 10 cm diameter duct from the air outlet using an AQE Fume Fighter 500 fume extractor (BPA Air Quality Solutions, LLC, Charleston, S.C.), which removes the test odors using activated charcoal and HEPA filters. The box is housed in an environmentally controlled room with overhead illumination timed to correspond to the current ambient light cycle including 2 additional sets of lights timed to approximate crepuscular lighting conditions. The bottom of the apparatus was lined with clean absorbent paper marked with a 4×9 grid pattern, forming 12 cm×12 cm squares with marked coordinates.
Apis mellifera Carniolan foraging worker honeybees were obtained from a local apiary (typically 60 bees per shipment). Thirty honeybees were put into each testing chamber and were allowed to acclimate for 24 hours with food and water freely available.
At the beginning of each test day all food was removed from the test chamber, but water was continually available throughout all tests. For each test, approximately 0.3 g of organic, raw orange blossom honey was added to each clean small plastic weigh boat (Cole-Palmer). The honey boats were placed in small plastic culture dishes, which were distributed in the marked squares in the chambers. The positions of the dishes on the grid for a set of trials was chosen to avoid the bees' preferred resting area so that they had to find the food actively, but the same dish positions were maintained for a given set of trials. […] The honey in each boat was weighed on an analytical balance before and after the test, with the screened sample as a control for evaporative loss. The fume extractor was left off during the experimental trails, and was turned on to clear the air after the test dishes were covered and removed from the chamber at the end of each trial.
Based on the observation that bees tend to return to dishes in the same position where they have fed before, each set of trials with each group of bees began with “Pattern Identification” tests to see which dishes lose the most weight, reflecting the most feeding. Once bees were consuming an acceptable amount in 10-15 min, typically in 1-2 trials, we began a set of test compound trials. The test compound was pipetted onto pieces of filter paper placed on the dish bottom below the boat containing a fresh, weighed honey sample so that the test compound was inaccessible to the bees. We used 2 μL of a candidate compound at a concentration of 0.05-0.5%, in Triton X-100 or paraffin oil, on each of four pieces of filter paper per dish. The test-solution dishes were set at the same positions as the one or two dishes favored in the preceding Pattern Identification trial. To eliminate interference from the solvent, the other dishes without the test substance contained the same volume of the appropriate solvent on filter papers as the test solution dishes. The bees were allowed to feed for 10-15 minutes. Bee movements were recorded by a small, wide-angle digital video camcorder (HD Hero 960; GoPro, Halfmoon Bay, Calif.) placed on a tripod in front of the test chamber. The bees were given a brief rest while the honey was weighed and a second test was begun with fresh dishes, except that the test compound-containing dish or dishes were placed at whichever positions were most visited in the preceding test. […] The bees were then rested for 1-3 hours and a subsequent set of trials begun with another Pattern Identification. […]

[3] = tested on: Apis mellifera Carniolan foraging worker honeybees; experiment: Proboscis extension response (PER) assay in bees conditioned to 2-heptanone; format: in vivo; conditions: final compound concentration 0.5% (TRITON X-100/water), 4 s exposure; only bees PER-positive to 2-heptanone and negative to controls counted
Method: To determine whether a living honeybee can recognize a candidate compound, these compounds were tested using a proboscis extension response (PER) assay using classical conditioning approaches. Proboscis extension response conditioning is a case of appetitive learning, in which bees learn to associate odor stimuli with sucrose reward in the laboratory. In this case, bees were conditioned to produce a PER to 2-heptanone as the conditioned stimulus and a sugar reward as the unconditioned stimulus. These trained bees were then exposed to an odor pulse of a candidate compound to test whether a candidate compound would also produce a PER. If the candidate compound “mimics” 2-heptanone then the honeybee will extend its proboscis.
For conditioning procedures, Apis mellifera Carniolan foraging worker honeybees were obtained from a local apiary (typically 60 bees per shipment). The honeybees were held overnight in insect cages with food and water freely available, in an environmentally controlled room on a light cycle similar to the ambient cycle at the time of the assay.
For conditioning procedures, all tests were done in an odorant delivery apparatus set inside a fume hood. The apparatus comprised a set of open-ended, horizontal, 3 cm diameter by 10 cm long plastic tubes. Each tube was designed where a honeybee could be positioned at the distal end of a tube, with the opening at the other end of the tube located proximal to an inlet of the fume hood. To deliver an odorant, room air was pumped by a diaphragm pump through a particle filter via 0.25 inch plastic tubing at approximately 0.7 m/sec. The air flow passes into the headspace above an odorant (0.5% [v/v]2-heptanone dissolved in odorless light paraffin oil) contained in a 100 mL bottle. The headspace air then passes through another plastic tube to a manifold of 4-way valves, each of which was attached near the proximal end of a plastic tube containing a bee. Each bee was exposed separately for a desired time period to the odorant by opening and closing the appropriate valve. When each valve was closed, the odor was flushed away immediately by the continuous fume hood air stream.
To train a honeybee to respond to a conditioned and unconditioned stimuli, bees were placed, without anesthesia, in individual 1.5 mL micro-centrifuge holding tubes and held overnight without access to food or water. The holding tubes containing the starved bees were placed in racks in groups of eight. One rack at a time was placed behind the odorant delivery apparatus so that each bee's head is centered at the distal end of a horizontal plastic tube. Each bee was exposed to the 2-heptanone odorant alone for four seconds, and then while being fed an 80% sucrose solution for and additional three seconds. The sucrose solution was delivered on a piece of saturated filter paper held in forceps. […] Positive and negative responses were recorded. A positive PER was scored when a bee extended its proboscis before the sucrose appeared. In a typical trial, 48 individual bees were subjected to conditioning. Six rounds of training were done before testing began, and typically a majority of the bees were successfully conditioned by the second or third round of training.
After conditioning, honeybees were tested with the candidate compounds the same day or on the following day or, most commonly, both. When held overnight, bees were fed with sucrose and kept in their holding tubes. When tested the day after training, bees were given one or more rounds of conditioning with 2-heptatone to refresh their memories. Candidate compounds stocks were made at 5% (w/v) in polyoxyethylene octyl phenyl ether (TRITON® X-100), a non-ionic detergent/surfactant, and stored at 4° C. This detergent is similar to substances used as carriers for a variety of commercial pest-control agents, can act as a solvent for both hydrophilic and hydrophobic substances, and is itself nearly odorless. […]

OBP2 = experiment: Fluorescent-quench ligand-protein-binding assay (OBP2 binding screen); set-up: species or system Apis mellifera
Text: To identify a honeybee repellent disclosed herein, candidate compounds were screened based upon the fact that 2-heptanone is an established repellent of bees. 2-heptanone is thought to mediate its behavioral response through binding to a specific odorant-binding protein called OBP2. Therefore compounds that bind OBP2 have the potential to act as odor “mimics” of 2-heptanone. By utilizing a fluorescent-quench, ligand-protein-binding assay, 30,000 compounds from the DIVERSET® library (ChemBridge Corp., San Diego, Calif.), a chemical library, were screened and over 150 candidate compounds were isolated that bind OBP2 (Table 1). Such assays are generally known in the art. See, e.g., Briand, et al., Ligand-Binding Properties and Structural Characterization of a Novel Rat Odorant-Binding Protein Variant, Eur. J. Biochem. 267(10): 3079-3089 (2000); Briand, et al., Ligand Binding and Physico-Chemical Properties of ASP2, A Recombinant Odorant-Binding Protein From Honeybee (Apis mellifera L.), Eur. J. Biochem. 268(3): 752-760 (2001); Briand, et al., Characterization of a Chemosensory Protein (ASP3c) from Honeybee (Apis mellifera L.) as a Brood Pheromone Carrier, Eur. J. Biochem. 269(18): 4586-4596 (2002), each of which is hereby incorporated by reference in its entirety.

[4] = amount 0.5%, negative = increase in food consumption

Question: Which results are given for `CCCCCC(C)=O` [2-heptanone]?
Answer: solubility in alcohol or ether ([1]; alcohol or ether): soluble; solubility in water ([1]; water): very slightly soluble; Repellence Score [2, 4]: 54.6%

Question: Which “2-heptanone positive bees testing positive to compound” value [3] does the source give for `Cc1cc(C)c2c(N)c(C(=O)c3ccc(Cl)cc3)sc2n1` [compound 8, (3-amino-4,6-dimethylthieno[2,3-b]pyridin-2-yl)(4-chlorophenyl)methanone] here?
Answer: 14.4%

Question: And the “OBP2 binding characteristic of compound” value (OBP2)?
Answer: Moderate (Moderate, indicates that 50% or less of the compound bound to OBP2.)

Question: What about the “Repellence Score” value [2, 4] of the same molecule?
Answer: −10.7%

Question: What about the “Repellent or attractant effect in choice test (in words)” value ([2]; reduction of feeding at dishes most visited in preceding test) of the same molecule?
Answer: slightly attractive

Question: With `O=[N+]([O-])c1ccc(C=Cc2ccc(O)cc2)cc1` [compound 2, 4-[2-(4-nitrophenyl)vinyl]phenol] as the molecule, how does the “2-heptanone positive bees testing positive to compound” value [3] read?
Answer: 31.5%

Question: What about the “OBP2 binding characteristic of compound” value (OBP2) of the same molecule?
Answer: Moderate (Moderate, indicates that 50% or less of the compound bound to OBP2.)

Question: What about the “Effectiveness at 10-fold lower concentration” value ([2]; 0.05% compared with 0.5%) of the same molecule?
Answer: significantly more effective

Question: And the “Repellence Score” value ([2]; amount 0.05%)?
Answer: 57.7%

Question: What about the “Repellence Score” value [2, 4] of the same molecule?
Answer: 37.6%

Question: With `O=C(NNC1=C(C(=O)C(F)(F)F)CCC1)c1ccc(Br)cc1` [compound 36] as the molecule, how does the “2-heptanone positive bees testing positive to compound” value [3] read?
Answer: 24.3%

Question: And the “OBP2 binding characteristic of compound” value (OBP2)?
Answer: Moderate (Moderate, indicates that 50% or less of the compound bound to OBP2.)

Question: What about the “Repellence Score” value [2, 4] of the same molecule?
Answer: 56.3%
